pIC50: −log10 of the molar value. Where a name gives a salt, the structure may show the parent alone.
Columns and labels:
OCI-LY10 = assay: Anti-proliferative effect in lymphoma cell line OCI-LY10 (CellTiter-Glo); format: cell-based; details: Homo sapiens, OCI-Ly10, 120 h; incubate with the compound for 5 days
Method: Experiment object: In this experiment, the inhibitory effects of the test compounds on cell proliferation in the diffuse large B-cell lymphoma cell lines OCI-LY10 and DOHH2, and the mantle cell lymphoma cell line Mino were tested.
The tumor cell lines were cultured in an incubator at 37° C. and 5% CO2 under the above-mentioned culture conditions. The cells were passaged regularly, and cells in the logarithmic growth phase were taken for plating.
(3). 90 μL of cell suspension was added to each well of the culture plate as shown in the table above, and cell-free culture solution was added to the blank control well.
(4). The culture plates were incubated overnight at 37° C., 5% CO2, and 100% relative humidity in an incubator.
A 400× compound working solution was prepared. The compound was gradually diluted with DMSO from the highest concentration to the lowest concentration. The compound was freshly formulated when use every time.
(1). Formulation of 10× compound working solution: 76 μL of cell culture solution was added to a 96-well plate with a V-shaped bottom, and 4 μL of the compound from a 200× compound solution plate was pipetted and added to the cell culture solution in the 96-well plate. 4 μL of DMSO was added to the vehicle control and blank control. After adding the compound or DMSO, a multi-channel pipette was used for mixing well. 78 μL of cell culture solution was added to a 96-well plate with a V-shaped bottom, and 2 μL of the compound from the 400× compound storage solution was pipetted and added to the cell culture solution in the 96-well plate. 2 μL of DMSO was added to the vehicle control and blank control. After adding the compound or DMSO, a multi-channel pipette was used for mixing well.
(2). Dosing: 10 μL of the 10× compound working solution was taken and added to the cell culture plate. 10 μL mixture of DMSO and cell culture solution was added to the vehicle control and blank control.
(3). The 96-well cell plates were placed back into the incubator to culture OCI-LY10 (5 times dilution, incubate with the compound for 5 days), DOHH2 (3 times dilution, incubate with the compound for 4 days), Mino (3 times dilution, incubate with the compound for 4 days).
The following steps followed the instructions of Promega CellTiter-Glo Luminescence Cell Viability Detection Kit (Promega-G7573).
(6). 50 μL (equal to half the volume of cell culture solution in each well) of CellTiter-Glo working solution was added into each well. The cell plates were wrapped with aluminum foil to protect the cell plate from light.
(9). The luminous signal was detected on the 2104 EnVision plate reader.
The following formula was used to calculate the inhibition rate (IR) of the test compound: IR (%)=(RLU of vehicle control−RLU of compound)/(RLU vehicle control−RLU blank control)*100%. […]

[1] = Pharmacokinetic properties of test compound in mice (oral); format: in vivo, C57BL male mice; details: mouse; for oral plasma systemic exposure (AUC0-inf), in words / pharmacokinetic properties in rodent mice, in words: oral
Text: In this study, C57BL male mice were selected as the test animals, and the LC/MS/MS method was used to quantitatively determine the drug concentration in the plasma of the test compound and the reference compound administered orally to evaluate the pharmacokinetic profile of the test compound in mice.
[…] (C57) mice (male, 20-30 g, 7-10 weeks old, from Beijing Vital River or Shanghai SLAC).
A clear solution or suspension of the test compound was administrated to C57 mice (fasted overnight) by oral gavage. Blood was collected from jugular vein at pre-dose and 0.5, 1, 2, 4, 6, 8, 24 hours post-dose, the collected blood samples were placed in an anticoagulant tube (Jiangsu Kangjian Medical Co., Ltd.) supplemented with EDTA-K2, and the mixture was vortexed and centrifuged at 13000 rpm for 10 minutes. The LC-MS/MS method was used to determine the plasma concentration, and the relevant pharmacokinetic parameters were calculated using the non-compartmental model linear logarithmic trapezoidal method by WinNonlin™ Version 6.3 (Pharsight, Mountain View, Calif.).

DOHH2 = assay: Anti-proliferative effect in lymphoma cell line DOHH2 (CellTiter-Glo); format: cell-based; details: Homo sapiens, DOHH-2, 96 h; incubate with the compound for 4 days
Method: (§1) Experiment object: In this experiment, the inhibitory effects of the test compounds on cell proliferation in the diffuse large B-cell lymphoma cell lines OCI-LY10 and DOHH2, and the mantle cell lymphoma cell line Mino were tested. The tumor cell lines were cultured in an incubator at 37° C. and 5% CO2 under the above-mentioned culture conditions. The cells were passaged regularly, and cells in the logarithmic growth phase were taken for plating. (3). 90 μL of cell suspension was added to each well of the culture plate as shown in the table above, and cell-free culture solution was added to the blank control well. (4). The culture plates were incubated overnight at 37° C., 5% CO2, and 100% relative humidity in an incubator. A 400× compound working solution was prepared. The compound was gradually diluted with DMSO from the highest concentration to the lowest concentration. […] The following steps followed the instructions of Promega CellTiter-Glo Luminescence Cell Viability Detection Kit (Promega-G7573). […] The luminous signal was detected on the 2104 EnVision plate reader. […] The inhibition rate of different concentrations of the compound was calculated in Excel, and then GraphPad Prism software was used to draw the inhibition curve and calculate the relevant parameters, including the minimum inhibition rate, the maximum inhibition rate and IC50.

Mino = assay: Anti-proliferative effect in lymphoma cell line Mino (CellTiter-Glo); format: cell-based; details: Homo sapiens, 96 h, incubate with the compound for 4 days
Method: as §1

[2] = test system: human lymphoma OCI-LY10 cells; assay: In vivo pharmacodynamic study in subcutaneous xenograft tumor CB-17 SCID model of human lymphoma OCI-LY10 cells; design: species or system CB-17 SCID mouse
Method: Cells culture: Human lymphoma OCI-LY10 cells (National Cancer Institute) were cultured in a monolayer method in vitro (culture conditions: RPMI-1640 medium with 10% fetal bovine serum, 100 U/mL penicillin and 100 μg/mL streptomycin; 37° C., 5% CO2 incubator). Pancreatin-EDTA was used twice a week for conventional digestion and passage. When a cell saturation of 80%-90% and the required cell number were achieved, the cells were collected, counted and seeded. Animal: CB-17 SCID mouse, female, 6-8 weeks old, weighing 18-22 grams. 0.2 mL (10×10^6 cells) of OCI-LY10 cells (with matrigel in a volume ratio of 1:1) were subcutaneously inoculated on the right back of each mouse. The grouping and administration were started when the average tumor volume reached about 139 mm^3. One dosing cycle was seven days, and the compound was administered once a day with an interval of 24 hours. The test compound was administered orally for a total of four cycles. The dose of the test compound WX001 was 60 mg/kg. The tumor volume was measured twice a week with a two-dimensional caliper, expressed in cubic millimeters, and calculated by the following formula: V=0.5a×b^2, in which a and b were the long diameter and short diameter of the tumor, respectively. The anti-tumor efficacy was determined by dividing the average increase of tumor volume of animals treated with the compound by that of untreated animals. TGI: Tumor Growth Inhibition. TGI (%)=[1−(average tumor volume at the end of administration in a treatment group−average tumor volume at the beginning of administration in this treatment group)/(average tumor volume at the end of administration in the solvent control group−average tumor volume at the beginning of administration in the solvent control group)]×100%.

[3] = 60 mg/kg oral once a day, Day 27

| SMILES | pIC50 (OCI-LY10) | oral plasma systemic exposure (AUC0-inf), in words [1] | pharmacokinetic properties in rodent mice, in words [1] | Area under the concentration-time curve (0-inf) ([1]; oral 10 mg/kg, plasma) [µM·h] | also measured |
| --- | --- | --- | --- | --- | --- |
| O=C1CCC(c2coc3cc4c(cc23)OCO4)C(=O)N1 (stereo not drawn) [WX002] | 7.07 |  |  |  |  |
| CN(C)CCOc1ccc2cc3occ(C4CCC(=O)NC4=O)c3cc2c1 (stereo not drawn) [Hydrochloride salt of WX022] |  | higher | better pharmacokinetic properties | 7.42 |  |
| O=C1CCC(c2coc3cc4ccccc4cc23)C(=O)N1 (stereo not drawn) [WX001] | 7.55 |  |  |  | pIC50 (DOHH2): 7.20; pIC50 (Mino): 7.14; Tumor volume (Day 0) ([2]; 60 mg/kg oral once a day, Day 0, start of administration): 139 mm^3; TGI (Day 27) [2, 3]: 105.5%; Tumor volume (Day 27) [2, 3]: 87 mm^3; tumor-shrinking effect, in words ([2]; human lymphoma OCI-LY10 model): significant tumor-shrinking effect |
| O=C1CCC(c2coc3cc4c(cc23)OCCN4)C(=O)N1 (stereo not drawn) [WX003] | 7.08 |  |  |  |  |

Further lines, with some results ahead:

| pIC50 (OCI-LY10) | oral plasma systemic exposure (AUC0-inf), in words [1] | pharmacokinetic properties in rodent mice, in words [1] | Area under the concentration-time curve (0-inf) ([1]; oral 10 mg/kg, plasma) [µM·h] | SMILES | also measured |
| --- | --- | --- | --- | --- | --- |
|  | higher | better pharmacokinetic properties | 13.29 | O=C1CCC(c2coc3cc4ccc(OCCN5CCOCC5)cc4cc23)C(=O)N1 (stereo not drawn) [WX015] | Peak concentration ([1]; oral 10 mg/kg, plasma): 5.14 µM; Time to peak ([1]; oral 10 mg/kg, plasma): 0.50 h |
| 8.22 |  |  |  | Cc1nc2cc3occ(C4CCC(=O)NC4=O)c3cc2o1 (stereo not drawn) [WX005] |  |

— US11319330B2, “Tricyclic furan-substituted piperidinedione compound” (MEDSHINE DISCOVERY INC., priority 2018, dated 2022)
